In EP0942911B1, “BENZOPYRANOPYRROLE AND BENZOPYRANOPYRIDINE ALPHA-1 ADRENERGIC COMPOUNDS” (Abbott Laboratories, priority 1996, dated 1998):
Where a name gives a salt, the structure may show the parent alone. Read-outs that look alike come from different tables or passages of the source.

Tests used:
Assay in all cases: biochemical
[1] = biological target: T1, α-1A adrenoreceptor (rat submaxillary gland) (Rattus norvegicus, UniProt P43140); format: binding; details: read-out: Radioligand Binding (Ki, nM) 1A (Rat)
T1 sequence (P43140 1-466): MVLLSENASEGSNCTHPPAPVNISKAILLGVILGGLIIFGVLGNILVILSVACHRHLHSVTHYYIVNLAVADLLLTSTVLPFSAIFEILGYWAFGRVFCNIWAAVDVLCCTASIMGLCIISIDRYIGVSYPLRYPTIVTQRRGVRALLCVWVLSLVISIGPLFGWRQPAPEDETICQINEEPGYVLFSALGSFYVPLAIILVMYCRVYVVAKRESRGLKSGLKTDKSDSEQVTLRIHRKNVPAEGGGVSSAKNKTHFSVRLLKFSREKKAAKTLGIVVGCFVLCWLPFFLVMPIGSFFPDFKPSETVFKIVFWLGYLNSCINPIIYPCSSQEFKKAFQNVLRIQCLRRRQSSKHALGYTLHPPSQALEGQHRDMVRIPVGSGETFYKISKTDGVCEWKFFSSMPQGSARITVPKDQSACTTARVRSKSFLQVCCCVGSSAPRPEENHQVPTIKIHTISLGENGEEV
Summary of the method: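 Membranes were prepared from rat submaxillary glands as the α-1A adrenoreceptor source. Competition binding followed Greengrass and Bremner, with bound radioligand measured by scintillation counting.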

α-1a adrenoreceptor = biological target: T2, α-1a adrenoreceptor (Bos taurus, UniProt P18130); format: binding, bovine; details: read-out: Radioligand Binding (Ki, nM) 1a (Bovine)
T2 sequence (P18130 1-466): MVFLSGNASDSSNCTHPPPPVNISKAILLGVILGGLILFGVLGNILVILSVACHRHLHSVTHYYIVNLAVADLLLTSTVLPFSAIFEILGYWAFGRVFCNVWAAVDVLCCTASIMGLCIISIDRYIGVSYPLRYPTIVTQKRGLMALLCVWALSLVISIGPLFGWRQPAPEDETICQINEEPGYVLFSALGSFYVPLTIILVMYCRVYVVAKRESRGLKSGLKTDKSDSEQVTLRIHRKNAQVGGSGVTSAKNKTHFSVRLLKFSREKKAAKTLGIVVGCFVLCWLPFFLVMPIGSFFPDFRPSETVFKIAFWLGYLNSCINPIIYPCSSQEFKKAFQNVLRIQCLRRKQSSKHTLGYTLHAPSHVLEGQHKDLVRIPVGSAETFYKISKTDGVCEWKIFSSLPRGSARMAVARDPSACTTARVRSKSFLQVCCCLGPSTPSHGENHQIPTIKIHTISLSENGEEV
Summary of the method: (§1)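 Radioactivity counted by liquid scintillation after radioligand binding to membranes. Receptors: cloned α-1a, α-1b, α-1d stably expressed in LTK mouse fibroblasts (G418 selection, SV40 early promoter); rat submaxillary gland membranes for pharmacologically defined α-1A.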

α-1b adrenoreceptor = biological target: T3, α-1b adrenoreceptor (Mesocricetus auratus, UniProt P18841); format: binding, hamster; details: read-out: Radioligand Binding (Ki, nM) 1b (Hamster)
T3 sequence (P18841 1-515): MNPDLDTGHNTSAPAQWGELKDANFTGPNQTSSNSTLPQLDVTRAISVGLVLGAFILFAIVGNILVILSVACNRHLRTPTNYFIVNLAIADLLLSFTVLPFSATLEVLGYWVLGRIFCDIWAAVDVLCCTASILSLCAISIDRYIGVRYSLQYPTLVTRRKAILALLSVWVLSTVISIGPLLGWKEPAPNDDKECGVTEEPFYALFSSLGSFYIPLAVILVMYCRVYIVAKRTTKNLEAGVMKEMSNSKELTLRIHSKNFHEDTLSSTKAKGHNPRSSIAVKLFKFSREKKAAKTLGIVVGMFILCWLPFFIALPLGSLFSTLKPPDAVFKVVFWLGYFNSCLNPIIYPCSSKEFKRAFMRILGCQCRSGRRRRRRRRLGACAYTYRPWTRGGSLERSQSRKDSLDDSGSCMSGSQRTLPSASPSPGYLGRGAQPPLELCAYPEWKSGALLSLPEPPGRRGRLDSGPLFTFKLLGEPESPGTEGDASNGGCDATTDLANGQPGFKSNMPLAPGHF
Summary of the method: as §1

α-1d adrenoreceptor = biological target: T4, α-1d adrenoreceptor (Rattus norvegicus, UniProt P23944); format: binding; details: read-out: Radioligand Binding (Ki, nM) 1d (Rat)
T4 sequence (P23944 1-561): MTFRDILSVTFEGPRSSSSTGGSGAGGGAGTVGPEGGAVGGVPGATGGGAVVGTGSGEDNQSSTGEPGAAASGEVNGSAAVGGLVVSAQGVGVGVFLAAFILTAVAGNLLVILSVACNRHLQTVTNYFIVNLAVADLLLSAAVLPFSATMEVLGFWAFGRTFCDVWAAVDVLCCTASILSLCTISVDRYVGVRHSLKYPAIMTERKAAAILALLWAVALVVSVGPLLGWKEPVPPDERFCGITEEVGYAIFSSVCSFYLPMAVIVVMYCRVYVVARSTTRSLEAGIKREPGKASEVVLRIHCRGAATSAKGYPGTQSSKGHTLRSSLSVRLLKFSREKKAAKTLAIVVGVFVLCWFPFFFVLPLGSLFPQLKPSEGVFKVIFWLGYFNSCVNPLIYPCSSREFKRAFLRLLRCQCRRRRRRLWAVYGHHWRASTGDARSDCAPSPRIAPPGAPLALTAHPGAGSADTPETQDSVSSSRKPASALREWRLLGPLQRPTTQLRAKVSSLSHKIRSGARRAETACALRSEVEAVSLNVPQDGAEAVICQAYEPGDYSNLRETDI
Summary of the method: as §1

[2] = [3H]-prazosin radioligand, rat submaxillary gland membranes
[3] = [3H]-prazosin radioligand, cloned receptor in LTK cell membranes

Compound | Ki [1, 2] [nM] | Ki (α-1a adrenoreceptor; [3]) [nM] | Ki (α-1b adrenoreceptor; [3]) [nM] | Ki (α-1d adrenoreceptor; [3]) [nM] | Ki [1] [nM] | Ki (α-1a adrenoreceptor) [nM] | Ki (α-1b adrenoreceptor) [nM] | Ki (α-1d adrenoreceptor) [nM]
COc1cnc2c(c1)sc1c(=O)n(CCCCN3C[C@H]4COc5cccc(OC)c5[C@@H]4C3)c(=O)[nH]c12 [Example 27, 3-[4-((3aS,9bR)-trans-9-Methoxy-1,2,3,3a,4,9b-hexahydro-[1]-benzopyrano[3,4-c]pyrrol-2-yl)butyl]-7-methoxy-pyrido[2',3':4,5]thieno[3,2-d]pyrimidine-2,4(1H,3H)-dione hydrochloride] | 0.121 | 0.044 | 0.974 | 0.094 | – | – | – | –
3-[2-((±)-trans-10-Methoxy-1,3,4,4a,5,10b-hexahydro-2H-[1]-benzopyrano[3,4-c]pyrido-3-yl)ethyl]-6,7-dimethoxy-quinazoline-2,4(1H,3H)-dione hydrochloride [Example 91] | 0.102 | 0.066 | 1.46 | 0.495 | – | – | – | –
COCCn1c(=O)n(CCCCN2C[C@@H]3COc4cccc(OC)c4[C@H]3C2)c(=O)c2sc3nccnc3c21 [Example 11, 3-[4-((3aR,9bS)-trans-9-Methoxy-1,2,3,3a,4,9b-hexahydro-[1]-benzopyrano[3,4-c]pyrrol-2-yl)butyl]-1-(2-Methoxyethyl)-pyrazino[2',3':4,5]thieno[3,2-d]pyrimidine-2,4(1H,3H)-dione hydrochloride] | 0.374 | 0.243 | 3.78 | 1.46 | – | – | – | –
COc1cccc2c1[C@@H]1CN(CCCCn3c(=O)[nH]c4c(sc5ncc(Cl)nc54)c3=O)C[C@@H]1CO2 [Example 16, 3-[4-((3aR,9bR)-cis-9-Methoxy-1,2,3,3a,4,9b-hexahydro-[1]-benzopyrano[3,4-c]pyrrol-2-yl)butyl]-8-chloro-pyrazino[2',3':4,5]thieno[3,2-d]pyrimidine-2,4(1H,3H)-dione hydrochloride] | 0.373 | 0.073 | 8.64 | 0.729 | – | – | – | –
COc1cccc2c1[C@H]1CCN(CCCn3c(=O)[nH]c4c(sc5cccnc54)c3=O)C[C@@H]1CO2 [Example 93, 3-[3-((4aR,10bS)-trans-10-Methoxy-1,3,4,4a,5,10b-hexahydro-2H-[1]-benzopyrano[3,4-c]pyrido-3-yl)propyl]-pyrido[2',3':4,5]thieno[3,2-d]pyrimidine-2,4(1H,3H)-dione dihydrochloride] | 4.04 | 1.2 | 3.67 | 11.5 | – | – | – | –
COc1cccc2c1[C@H]1CN(CCCCn3c(=O)[nH]c4c(sc5c(OC)ccnc54)c3=O)C[C@@H]1CO2 [Example 8, 3-[4-((3aR,9bS)-trans-9-Methoxy-1,2,3,3a,4,9b-hexahydro-[1]-benzopyrano[3,4-c]pyrrol-2-yl)butyl]-6-methoxy-pyrido[2',3':4,5]thieno[3,2-d]pyrimidine-2,4(1H,3H)-dione dihydrochloride] | 0.762 | 0.362 | 4.19 | 1.42 | – | – | – | –
COc1cccc2c1[C@@H]1CN(CCCCn3c(=O)[nH]c4c(sc5ccccc54)c3=O)C[C@H]1CO2 [Example 21, 3-[4-((3aS,9bR)-trans-9-Methoxy-1,2,3,3a,4,9b-hexahydro-[1]-benzopyrano[3,4-c]pyrrol-2-yl)butyl]-[1]benzthieno[3,2-d]pyrimidine-2,4(1H,3H)-dione hydrochloride] | 0.03 | 0.018 | 0.326 | 0.03 | – | – | – | –
COc1cccc2c1[C@H]1CN(CCCCn3c(=O)[nH]c4c(sc5nccnc54)c3=O)C[C@@H]1CO2 [Example 12, 3-[4-((3aR,9bS)-trans-9-Methoxy-1,2,3,3a.4,9b-hexahydro-[1]-benzopyrano[3,4-c]pyrrol-2-yl)butyl]-pyrazino[2',3':4,5]thieno[3,2-d]pyrimidine-2,4(1H,3H)-dione dihydrochloride] | 0.52 | 0.375 | 5.25 | 2.17 | – | – | – | –
COc1cc2[nH]c(=O)n(CCCN3CC[C@H]4c5c(OC)cccc5OC[C@@H]4C3)c(=O)c2cc1OC (racemic) [Example 83, 3-[3-(±)-trans-10-Methoxy-1,3,4,4a,5,10b-hexahydro-2H-[1]-benzopyrano[3,4-c]pyrido-3-yl)propyl]-6,7-dimethoxy-quinazoline-2,4(1H,3H)-dione hydrochloride] | 0.383 | 0.217 | 3.07 | 0.807 | – | – | – | –
COc1cc(O)cc2c1[C@@H]1CN(CCCCn3c(=O)[nH]c4c(sc5ncc(-c6ccccc6)nc54)c3=O)C[C@@H]1CO2 (relative stereo) [Example 104, 3-[4-(-cis-7-Hydroxy-9-methoxy-1,2,3,3a,4,9b-hexahydro-[1]-benzopyrano[3,4-c]pyrrol-2-yl)butyl]-8-phenyl-pyrazino[2',3':4,5]thieno[3,2-d]pyrimidine-2,4(1H,3H)-dione] | 3.59 | 0.427 | 266 | 5.2 | – | – | – | –
COc1cccc2c1[C@H]1CN(CCCCn3c(=O)[nH]c4c(sc5cccnc54)c3=O)C[C@@H]1CO2 (racemic) [Example 72, 3-[4-((±)-trans-9-Methoxy-1,2,3,3a,4,9b-hexahydro-[1]-benzopyrano[3,4-c]pyrrol-2-yl)butyl]-pyrido[2',3':4,5]thieno[3,2-d]pyrimidine-2,4(1H,3H)-dione dihydrochloride] | – | – | – | – | 0.107 | 0.133 | 3.54 | 0.804
COc1cccc2c1[C@@H]1CCN(CCCn3c(=O)[nH]c4c(sc5cccnc54)c3=O)C[C@H]1CO2 [Example 92, 3-[3-((4aS,10bR)-trans-10-Methoxy-1,3,4,4a,5,10b-hexahydro-2H-[1]-benzopyrano[3,4-c]pyrido-3-yl)propyl]-pyrido[2',3':4,5]thieno[3,2-d]pyrimidine-2,4(1H,3H)-dione dihydrochloride] | 3.85 | 2.2 | 45.1 | 18.5 | – | – | – | –
COc1cccc2c1[C@@H]1CN(CCCCn3c(=O)[nH]c4c(sc5ccc(-c6ccccc6)nc54)c3=O)C[C@H]1CO2 [Example 52, 3-[4-((3aS,9bR)-trans-9-Methoxy-1,2,3,3a,4,9b-hexahydro-[1]-benzopyrano[3,4-c]pyrrol-2-yl)butyl]-8-phenyl-pyrido[2',3':4,5]thieno[3,2-d]pyrimidine-2,4(1H,3H)-dione dihydrochloride] | 3.98 | 1.08 | 13.6 | 0.597 | – | – | – | –
